The source of these data is patent publication US20050256179A1, “Selective pharmacologic inhibition of protein trafficking and related methods of treating human diseases” (priority 2003, published 2005).

Assay [1] deals with Mannosidase II. In words: Mannosidase II immunocytochemistry. It is filed as cell-based. The method, then: GS15, GS28, GPP130, and Mannosidase II, sparing the golgi structural protein GM-130 and having little effect on the Rab GTPase Rab6. Furthermore, these affects were most pronounced following overnight (16-20 hr) incubations with AVP 893, although some affects at early time points were seen. These conclusions were drawn from the western blot analysis (FIG. 29), as well as from the immunocytochemical studies (FIGS. 30-31).
Additional evidence that AVP 893 has unique activity against resident golgi proteins (e.g. Mannosidase II), was found using both shorter durations of drug exposure and immunocytochemistry instead of western blot analysis (FIG. 43).

Assay [2] deals with Rab6. In words: Rab6 expression. It is filed as cell-based.

On to `O=C(Nc1ccc(-c2nc3cc(NC(=O)C4CCCCC4)ccc3[nH]2)cc1)C1CCCCC1` [AVP 893], for which the “Mannosidase II staining pattern” value in assay [1] (1 hr of treatment, immunocytochemistry) is “no apparent effect”. Besides, the “Mannosidase II in golgi” value in assay [1] (after 4 hrs of application) is given as “little to no discernible amount of the enzyme remaining after 4 hrs”. The Rab6 expression result in assay [2] (3T3 and PMA/ionomycin-stimulated spleen cells, overnight) is “suppressed Rab6 expression”. The Rab6 staining entry in assay [2] (immunocytochemistry, even after 18 hrs) is given as “not diminished nor significantly altered”.
